Where “and” joins values, the source holds several entries; their conditions need not be identical. Equal values may be shown once.
Columns and labels:
C57B1/6 ob/ob mouse [1] = assay: Fed plasma HDL-cholesterol; type: in vivo; details: ob/ob mice; for Fed HDL cholesterol day 28: individual values; for percentage HDL cholesterol day 28: HDL as percentage of total cholesterol
Description: The following are a battery of tests used to elicit the effects of drugs on diseases including type I or II diabetes, obesity, dyslipidaemia, related metabolic disorders and cardiovascular disease. • a) Body weight: Bodyweights of all mice were measured twice weekly during the study. • b) Food intake: Food intake was measured by weight difference taking account of food wastage in the bottom of the cage. • c) Measurement of water consumption: Water intake was calculated daily for each animal, during the treatment period, by weight difference of the water bottle. • d) Oral Glucose Tolerance Test (OGTT): Glucose was dissolved in water (3 g/10 ml) and given to the mice orally at a rate of 3 g/kg. […] Blood samples were also taken at −30 minutes for insulin analysis. • e) Blood Glucose analysis: Duplicate 20 μl samples of blood of were taken for each individual sample and placed in a 96-well assay plate. To each well was added 180 μl aliquots of glucose oxidase reagent. Samples were mixed and then left for approximately 30 minutes. Samples were then analysed automatically using a SpectraMax-250 and SoftMax Pro software. • f) Plasma preparation: Blood was collected for the measurement of i) plasma insulin, ii) cholesterol, iii) free fatty acids or iv) triglyceride concentration. • i. Plasma insulin analysis: Plasma insulin was measured using 5 μl of plasma, compared with a mouse insulin standard using a 96-well micro-assay plate • ii. Plasma cholesterol analysis: To each sample was added 200 μl of infinity cholesterol liquid stable reagent. The samples were mixed and incubated for 5 minutes before reading at dual wavelengths of 500 and 660 nm. • iii. Plasma free fatty acids: 5 μl samples of plasma were measured into a 96-well assay plate, to which was added 0.2 ml of reagents NEFA C • iv. Plasma triglycerides analysis: To each well 200 μl aliquots of triglycerides reagent. […] Comparison with a calibrated standard allowed identification of types of tissue by their density. Dedicated software was using to quantify amounts of bone and fat. The mice were lightly anaesthetised, sufficient to keep them quiescent during this non-invasive technique. • h) Energy expenditure measurements: Energy expenditure was measured by open circuit indirect calorimetry with mice in their home cages. For studies of 24 h energy expenditure, mice were dosed with their allocated treatment and then measurements commenced. […] Plasma leptin was measured in fed mice using the Crystal Chem Elisa assay. • j) Plasma adiponectin: Adiponectin exerts some of its weight reduction effects via the brain. This is similar to the action of leptin, but the two hormones perform complementary actions, and can have additive effects. Plasma adiponectin was measured in overnight fasted mice using the 96-well B-Bridge Elisa assay. • k) Plasma HDL-cholesterol: Plasma HDL-cholesterol was measured in fed mice using the kit from Trinity Biotech. • l) 24 h blood glucose profile: This was determined in order to ensure that changes in the diurnal control of blood glucose were detected. Thus blood samples were obtained at three hourly intervals throughout a continuous 24 h period. • m) Plasma haemoglobin AIC: Samples (10 μl) were analysed using the AIC. […] The homogenate was then extracted overnight at 4° C. and centrifuged at 2000 g for 5 min. • o) Pancreatic islet histology: […] sections were cut using a Leica RM2125 rotary microtome, transferred to positively-charged glass slides and dried overnight at 42° C. Morphology was assessed using hematoxylin and eosin staining. • p) Liver glycogen: After centrifugation (3000×g for 15 min), an aliquot of the supernatant (10 μl) is assayed using the glucose oxidase method. […] 1 ml of chloroform is added and tubes vortexed and left at 4° C. for 2 h with vortexing every 30 min. 200 μl of 0.9% sodium chloride is added and after thorough vortexing, the mixture is centrifuged at 300×g for 5 min.

C57B1/6 ob/ob mouse [2] = assay: Fed plasma cholesterol; type: in vivo; details: ob/ob mice, individual values
Description: Blood samples were also taken at −30 minutes for insulin analysis. • e) Blood Glucose analysis: Duplicate 20 μl samples of blood of were taken for each individual sample and placed in a 96-well assay plate. To each well was added 180 μl aliquots of glucose oxidase reagent. Samples were mixed and then left for approximately 30 minutes. Samples were then analysed automatically using a SpectraMax-250 and SoftMax Pro software. • f) Plasma preparation: Blood was collected for the measurement of i) plasma insulin, ii) cholesterol, iii) free fatty acids or iv) triglyceride concentration. • i. Plasma insulin analysis: Plasma insulin was measured using 5 μl of plasma, compared with a mouse insulin standard using a 96-well micro-assay plate • ii. Plasma cholesterol analysis: To each sample was added 200 μl of infinity cholesterol liquid stable reagent. The samples were mixed and incubated for 5 minutes before reading at dual wavelengths of 500 and 660 nm. • iii. Plasma free fatty acids: 5 μl samples of plasma were measured into a 96-well assay plate, to which was added 0.2 ml of reagents NEFA C • iv. Plasma triglycerides analysis: To each well 200 μl aliquots of triglycerides reagent. […] Comparison with a calibrated standard allowed identification of types of tissue by their density. Dedicated software was using to quantify amounts of bone and fat. The mice were lightly anaesthetised, sufficient to keep them quiescent during this non-invasive technique. • h) Energy expenditure measurements: Energy expenditure was measured by open circuit indirect calorimetry with mice in their home cages. For studies of 24 h energy expenditure, mice were dosed with their allocated treatment and then measurements commenced. […] Plasma leptin was measured in fed mice using the Crystal Chem Elisa assay. • j) Plasma adiponectin: Adiponectin exerts some of its weight reduction effects via the brain. […] Plasma adiponectin was measured in overnight fasted mice using the 96-well B-Bridge Elisa assay. • k) Plasma HDL-cholesterol: Plasma HDL-cholesterol was measured in fed mice using the kit from Trinity Biotech. • l) 24 h blood glucose profile: This was determined in order to ensure that changes in the diurnal control of blood glucose were detected. Thus blood samples were obtained at three hourly intervals throughout a continuous 24 h period. • m) Plasma haemoglobin AIC: Samples (10 μl) were analysed using the AIC. […] Morphology was assessed using hematoxylin and eosin staining. • p) Liver glycogen: After centrifugation (3000×g for 15 min), an aliquot of the supernatant (10 μl) is assayed using the glucose oxidase method. […] The residue is dissolved in 200 μl ethanol and triglyceride content measured. […]

[3] = 3.0 mg·kg−1 daily oral gavage (combination: both 3.0)
[4] = 3.0 mg·kg−1 daily oral gavage (combination: both 3.0), listed as Pure CBD
[5] = 0.3 mg·kg−1 daily oral gavage (combination: both 0.3)

| SMILES | Fed HDL cholesterol day 28 (C57B1/6 ob/ob mouse [1]; [3]) | Fed HDL cholesterol day 28 (C57B1/6 ob/ob mouse [1]; [4]) | Fed plasma cholesterol day 28 (C57B1/6 ob/ob mouse [2]; [3]) | Fed plasma cholesterol day 28 (C57B1/6 ob/ob mouse [2]; [4]) | Fed HDL cholesterol day 28 (C57B1/6 ob/ob mouse [1]; [5]) | percentage HDL cholesterol day 28 (C57B1/6 ob/ob mouse [1]; [5]) | percentage HDL cholesterol day 28 (C57B1/6 ob/ob mouse [1]; [3]) | Fed plasma cholesterol day 28 (C57B1/6 ob/ob mouse [2]; [5]) |
| --- | --- | --- | --- | --- | --- | --- | --- | --- |
| C=C(C)[C@@H]1CCC(C)=C[C@H]1c1c(O)cc(CCCCC)cc1O [CBD, cannabidiol] | increasing the amount and 3.31 and 3.00 and 3.36 and 3.63 and 2.98 and 3.38 and 3.18 | increasing the plasma HDL-cholesterol concentration | reduced the total plasma cholesterol concentration and 3.64 and 4.22 and 3.77 and 5.02 and 2.90 and 5.38 and 3.50 | reduced the total plasma cholesterol | – | – | – | – |
| CCCc1cc(O)c2c(c1)OC(C)(C)[C@@H]1CCC(C)=C[C@@H]21 [THCV, tetrahydrocannabivarin] | 2.17 and 2.16 and 2.24 and 2.51 and 2.98 and 2.94 and 2.57 and 2.28 | – | 6.30 and 6.94 and 6.59 and 6.20 and 7.22 and 6.46 and 7.66 and 7.05 | – | 2.16 (3×) and 2.35 and 2.33 and 2.21 and 2.25 and 2.14 | 30.4% and 25.1% and 33.6% and 39.3% and 37.5% and 34.3% and 37.9% and 38.0% | 34.5% and 31.1% and 34.0% and 40.4% and 41.3% and 45.6% and 33.6% and 32.4% | 7.12 and 8.60 and 6.43 and 5.99 and 6.21 and 6.45 and 5.93 and 5.62 |

Source: patent publication US20130245110A1, “USE FOR CANNABINOIDS” (priority 2008, published 2013)
